Tests used:
[1] = target: T1, human TLR8 (wild type sequence) (Homo sapiens, UniProt Q9NR97); assay: TLR8 cellular NFκB-luc reporter assay, wild type TLR8; format: cell-based; design: unit not given here; conditions: lowest effective concentration, wild type TLR8 (compounds 74 onward)
T1 construct: expressed in transfected cells; host or cells: HEK293
T1 sequence (Q9NR97 27-1041): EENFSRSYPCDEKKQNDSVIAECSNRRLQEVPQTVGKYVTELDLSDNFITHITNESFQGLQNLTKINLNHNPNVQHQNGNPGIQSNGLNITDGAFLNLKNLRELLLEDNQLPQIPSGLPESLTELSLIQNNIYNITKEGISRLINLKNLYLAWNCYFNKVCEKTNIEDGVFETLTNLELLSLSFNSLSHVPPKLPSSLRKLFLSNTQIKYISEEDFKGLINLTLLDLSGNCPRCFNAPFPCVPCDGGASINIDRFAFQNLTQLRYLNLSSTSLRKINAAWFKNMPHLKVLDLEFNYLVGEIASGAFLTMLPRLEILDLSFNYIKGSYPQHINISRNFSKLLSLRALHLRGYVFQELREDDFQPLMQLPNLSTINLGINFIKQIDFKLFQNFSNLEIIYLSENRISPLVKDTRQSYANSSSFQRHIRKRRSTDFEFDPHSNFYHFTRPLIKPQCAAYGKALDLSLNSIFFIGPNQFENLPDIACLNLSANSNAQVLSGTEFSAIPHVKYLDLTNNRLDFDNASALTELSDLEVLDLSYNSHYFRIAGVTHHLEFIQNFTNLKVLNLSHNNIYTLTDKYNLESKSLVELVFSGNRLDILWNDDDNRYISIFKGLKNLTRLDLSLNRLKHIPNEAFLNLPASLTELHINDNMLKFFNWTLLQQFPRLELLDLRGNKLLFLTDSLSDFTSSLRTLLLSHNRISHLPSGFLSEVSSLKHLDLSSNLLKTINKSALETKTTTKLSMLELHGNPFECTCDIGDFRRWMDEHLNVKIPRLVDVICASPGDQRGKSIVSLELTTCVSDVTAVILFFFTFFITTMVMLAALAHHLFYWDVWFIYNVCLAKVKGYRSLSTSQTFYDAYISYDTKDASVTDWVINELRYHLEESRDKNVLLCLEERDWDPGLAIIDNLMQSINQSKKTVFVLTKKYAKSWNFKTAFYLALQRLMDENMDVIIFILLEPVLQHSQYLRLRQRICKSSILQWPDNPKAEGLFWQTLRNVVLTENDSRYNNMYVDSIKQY
Procedure: (§1) The ability of compounds to activate human TLR7 and/or TLR8 was assessed in a cellular reporter assay using HEK293 cells transiently transfected with a TLR7 or TLR8 expression vector and NFκB-luc reporter construct. In one instance the TLR expression construct expresses the respective wild type sequence or a mutant sequence comprising a deletion in the second leucine-rich repeat of the TLR.
(§2) Briefly, HEK293 cells were grown in culture medium (DMEM supplemented with 10% FCS and 2 mM Glutamine). For transfection of cells in 10 cm dishes, cells were detached with Trypsin-EDTA, transfected with a mix of CMV-TLR7 or TLR8 plasmid (750 ng), NFκB-luc plasmid (375 ng) and a transfection reagent and incubated for 48 hours at 37° C. in a humidified 5% CO2 atmosphere. Transfected cells were then detached with Trypsin-EDTA, washed in PBS and resuspended in medium to a density of 1.67×10^5 cells/mL. Thirty microliters of cells were then dispensed into each well in 384-well plates, where 10 μL of compound in 4% DMSO was already present. Following 6 hours incubation at 37° C., 5% CO2, the luciferase activity was determined by adding 15 μl of Steady Lite Plus substrate (Perkin Elmer) to each well and readout performed on a ViewLux ultraHTS microplate imager (Perkin Elmer). Dose response curves were generated from measurements performed in quadruplicates. Lowest effective concentrations (LEC) values, defined as the concentration that induces an effect which is at least two fold above the standard deviation of the assay, were determined for each compound.

[2] = system: HCV replicon in Huh-7 luc/neo cells; assay: Suppression of HCV replicon replication by conditioned media from compound-treated PBMC; format: cell-based, HCV type 1 b; conditions: Hepatitis C virus; conditioned media from compound-treated PBMC on Huh-7 luc/neo replicon cells (compounds 74 onward); read-out: PBMC HUH-7 EC50
Procedure: Activation of human TLR7 results in robust production of interferon by plasmacytoid dendritic cells present in human blood. The potential of compounds to induce interferon was evaluated by looking at the antiviral activity in the HCV replicon system upon incubation with conditioned media from peripheral blood mononuclear cells (PBMC). […] The assay utilized the stably transfected cell line Huh-7 luc/neo harboring an RNA encoding a bicistronic expression construct comprising the wild type NS3-NS5B regions of HCV type 1 b translated from an Internal Ribosome Entry Site (IRES) from encephalomyocarditis virus (EMCV), preceded by a reporter gene (Firefly-luciferase) and a selectable marker gene (neoR, neomycine phosphotransferase). The construct is flanked by 5′ and 3′ NTRs (non-translated regions) from HCV type 1 b. Continued culture of the replicon cells in the presence of G418 (neoR) is dependent on the replication of the HCV RNA. The stably transfected replicon cells that replicate HCV RNA autonomously and to high levels, encoding inter alia luciferase, were used for profiling of the conditioned cell culture media.
Briefly, PBMCs were prepared from buffy coats of at least two donors using a standard Ficoll centrifugation protocol. Isolated PBMCs were resuspended in RPMI medium supplemented with 10% human AB serum and 2×10^5 cells/well were dispensed into 384-well plates containing compounds (70 μL total volume). After overnight incubation, 10 μL of supernatant was transferred to 384-well plates containing 2.2×10^3 replicon cells/well in 30 μL (plated the day before). Following 24 hours of incubation, replication was measured by assaying luciferase activity using 40 μL/well Steady Lite Plus substrate (Perkin Elmer) and measured with ViewLux ultraHTS microplate imager (Perkin Elmer). […] Recombinant interferon α-2a (Roferon-A) was used as a standard control compound.

[3] = target: T2, human TLR7 (wild type sequence) (Homo sapiens, UniProt Q9NYK1); assay: TLR7 cellular NFκB-luc reporter assay, wild type TLR7; format: cell-based; design: unit not given here; conditions: lowest effective concentration, wild type TLR7 (compounds 74 onward)
T2 construct: expressed in transfected cells; host or cells: HEK293
T2 sequence (Q9NYK1 27-1049): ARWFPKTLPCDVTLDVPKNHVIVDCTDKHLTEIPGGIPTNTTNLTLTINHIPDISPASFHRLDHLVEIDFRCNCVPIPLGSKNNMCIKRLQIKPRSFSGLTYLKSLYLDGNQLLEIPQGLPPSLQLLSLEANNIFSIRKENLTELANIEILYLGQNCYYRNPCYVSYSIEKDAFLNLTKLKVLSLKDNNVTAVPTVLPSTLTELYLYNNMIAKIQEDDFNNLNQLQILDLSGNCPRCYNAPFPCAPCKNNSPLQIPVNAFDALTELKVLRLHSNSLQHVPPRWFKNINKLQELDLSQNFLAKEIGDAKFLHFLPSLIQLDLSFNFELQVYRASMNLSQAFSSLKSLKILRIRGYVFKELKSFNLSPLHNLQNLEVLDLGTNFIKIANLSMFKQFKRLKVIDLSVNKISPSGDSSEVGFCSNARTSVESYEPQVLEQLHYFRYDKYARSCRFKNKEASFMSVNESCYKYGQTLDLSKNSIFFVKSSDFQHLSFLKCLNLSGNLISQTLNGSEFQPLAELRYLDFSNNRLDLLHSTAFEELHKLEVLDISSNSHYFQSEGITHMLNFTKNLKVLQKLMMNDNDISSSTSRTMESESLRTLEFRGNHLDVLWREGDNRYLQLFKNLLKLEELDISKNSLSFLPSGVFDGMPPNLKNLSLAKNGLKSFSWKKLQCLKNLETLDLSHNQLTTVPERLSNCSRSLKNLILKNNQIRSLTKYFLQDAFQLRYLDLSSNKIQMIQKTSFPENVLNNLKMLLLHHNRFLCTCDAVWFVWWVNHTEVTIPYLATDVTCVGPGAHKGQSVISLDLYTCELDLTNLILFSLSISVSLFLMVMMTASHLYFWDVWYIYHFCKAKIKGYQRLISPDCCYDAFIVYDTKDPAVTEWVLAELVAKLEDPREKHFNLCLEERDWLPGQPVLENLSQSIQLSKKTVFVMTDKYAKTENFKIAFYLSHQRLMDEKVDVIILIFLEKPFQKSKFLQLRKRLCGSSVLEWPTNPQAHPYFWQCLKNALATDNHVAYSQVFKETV
Procedure: as §1, §2

Structure (SMILES)	TLR 8 wt LEC [1]	EC50 [2]	TLR 7 wt LEC [3]
CCCCNc1nc(N)ncc1OCCCc1ccccc1OC [Compound 149]	5.850	0.703 µM	2.080
CCCCNc1nc(N)ncc1OCC(=O)c1ccc(OC)cc1 [Compound 94]	3.170	0.696 µM	1.590
CCCCNc1nc(N)ncc1OCc1nccc(OCC(F)(F)F)c1C [Compound 139]	0.286	0.009 µM	0.025
CCCCNc1nc(N)ncc1OCCCc1cc(OC)c(OC)c(OC)c1 [Compound 160]	2.710	0.634 µM	0.756
CCCCNc1nc(N)ncc1OCc1noc(-c2ccccc2)n1 [Compound 156]	2.060	0.697 µM	0.828
CCCCNc1nc(N)ncc1OCC1CCCO1 (stereo not drawn) [Compound 100]	6.160	5.12 µM	18.950
CCC[C@@H](CO)Nc1nc(N)ncc1OCCCc1ccccc1 [Compound 125]	0.598	0.336 µM	1.630
CCCC(C)Nc1nc(N)ncc1OCCCc1ccccc1 (stereo not drawn) [Compound 112]	5.560	3.35 µM	3.960
CCC(CO)Nc1nc(N)ncc1OC (stereo not drawn) [Compound 92]	14.570	20.2 µM	>25
CCCCNc1nc(N)ncc1OCc1ncccc1OC [Compound 179]	0.142	0.021 µM	0.078
CCC[C@@H](CCO)Nc1nc(N)ncc1OCc1ncc(C)c(OC)c1C [Compound 187]	0.178	0.022 µM	0.074
CCCCNc1nc(N)ncc1OCc1cc2ccccc2n(CCC(C)C)c1=O [Compound 158]	>25	3.31 µM	3.080
CCCCNc1nc(N)ncc1OCCCCc1ccccc1 [Compound 110]	3.780	0.74 µM	2.380
CCCCNc1nc(N)ncc1OCC(C)(O)CC (stereo not drawn) [Compound 104]	12.390	> 23.8 µM	>25
CCCCNc1nc(N)ncc1OCc1nn(C)c2cc(OC)c(OC)cc12 [Compound 183]	1.580	0.023 µM	0.056
CCCCNc1nc(N)ncc1OCCCc1ccc(Cl)c(Cl)c1 [Compound 169]	>25	3.13 µM	5.110
CCCCNc1nc(N)ncc1O[C@@H](C)c1ccccc1 [Compound 99]	1.820	1.28 µM	8.980
CCC[C@@H](CO)Nc1nc(N)ncc1OCc1ccc2ccccc2n1 [Compound 192]	0.220	0.044 µM	0.080
CCCCNc1nc(N)ncc1OCCCc1ccc(Cl)cc1Cl [Compound 152]	>25	3.35 µM	5.410
COc1cnc(N)nc1NCCCCF [Compound 97]	5.070	2.64 µM	21.810
CCCCNc1nc(N)ncc1OCCOCc1ccccc1 [Compound 83]	1.610	0.204 µM	0.997
CCCCNc1nc(N)ncc1OCCOc1ccnc2cc(OC)ccc12 [Compound 141]	0.704	0.733 µM	4.360
CCCCCC(C)Nc1nc(N)ncc1OCc1ccc2ccccc2n1 (stereo not drawn) [Compound 189]	>25	17.6 µM	11.990
CCCCNc1nc(N)ncc1OCc1cc(C(=O)OCC)ccn1 [Compound 170]	1.750	2.63 µM	0.319
CCCCNc1nc(N)ncc1OCCOc1cc(C(C)C)nc2cc(OC)ccc12 [Compound 142]	2.370	19.7 µM	>25
CCCCNc1nc(N)ncc1OCc1nc(-c2ccccc2)no1 [Compound 155]	4.560	3.44 µM	2.660
CCCCNc1nc(N)ncc1OCCOc1cccnc1 [Compound 143]	0.880	0.443 µM	1.810
CCCCNc1nc(N)ncc1OCCCc1ccncc1 [Compound 177]	0.819	0.197 µM	0.795

Reference: patent US11541050B2, “Pyrimidine derivatives for the treatment of viral infections” (JANSSEN SCIENCES IRELAND UC, priority 2011, dated 2023)
